For the series, the system named is rodent carcinogenicity bioassays, tumor incidence. As to the kind of experiment: CCRIS carcinogenicity studies. Put shortly:
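NCI-built, expert-reviewed records of carcinogenicity and related test outcomes (mutagenicity, tumor promotion/inhibition) compiled from published and report sources, historical span 1985-2011, not updated.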

Calls of active or inactive are those of the source. How the calls were made is not given here.

Take `Cc1cn([C@H]2C[C@H](N=[N+]=[N-])[C@@H](CO)O2)c(=O)[nH]c1=O`: the carcinogen call was “active; positive” (Species: MOUSE, Strain/Sex: B6C3F1/FEMALE, Route: GAVAGE, Dose: 0, 30, 60, 120 MG/KG BW IN 0.5% METHYLCELLULOSE ADMINISTERED IN TWO EQUAL DOSES DAILY 5 D/WK FOR 105 WK (STUDY DURATION:, Dose: 0, 30, 60, 120 MG/KG BW IN 0.5% METHYLCELLULOSE ADMINISTERED IN TWO EQUAL DOSES DAILY 5 D/WK FOR 105 WK (STUDY DURATION:, Tumor Site: Type of Lesion: VAGINA: SQUAMOUS CELL CARCINOMA, SQUAMOUS CELL PAPILLOMA OR CARCINOMA); “equivocal” (Species: MOUSE, Strain/Sex: B6C3F1/MALE, Route: GAVAGE, Dose: 0, 30, 60, 120 MG/KG BW IN 0.5% METHYLCELLULOSE ADMINISTERED IN TWO EQUAL DOSES DAILY 5 D/WK FOR 105 WK (STUDY DURATION:, Dose: 0, 30, 60, 120 MG/KG BW IN 0.5% METHYLCELLULOSE ADMINISTERED IN TWO EQUAL DOSES DAILY 5 D/WK FOR 105 WK (STUDY DURATION:, Tumor Site: Type of Lesion: KIDNEY: RENAL TUBULE ADENOMA, RENAL TUBULE CARCINOMA, HARDERIAN GLAND: ADENOMA, ADENOMA OR CARCINOMA); “active; positive” (Species: MOUSE, Strain/Sex: CD-1/FEMALE, Route: GAVAGE, Dose: 0, 30, 60, 120 MG/KG/D ON DAY 91 OF STUDY DOSES LOWERED TO 20, 30, 40 MG/KG (STUDY DURATION: 22 MO), Dose: 0, 30, 60, 120 MG/KG/D ON DAY 91 OF STUDY DOSES LOWERED TO 20, 30, 40 MG/KG (STUDY DURATION: 22 MO), Tumor Site: Type of Lesion: VAGINA: SQUAMOUS CELL CARCINOMA); “active; positive” (Species: MOUSE, Strain/Sex: CD-1/FEMALE, Route: INTRAVAGINAL, Dose: 0, 5, 20 MG/ML IN 0.9% SALINE ADMINISTERED AT 0.2 ML 2/D (STUDY DURATION: 24 MO), Dose: 0, 5, 20 MG/ML IN 0.9% SALINE ADMINISTERED AT 0.2 ML 2/D (STUDY DURATION: 24 MO), Tumor Site: Type of Lesion: VAGINA: SQUAMOUS CELL CARCINOMA); “inactive; negative” (Species: MOUSE, Strain/Sex: CD-1/MALE, Route: GAVAGE, Dose: 0, 30, 60, 120 MG/KG/D ON DAY 91 OF STUDY DOSES LOWERED TO 20, 30, 40 MG/KG/D (STUDY DURATION: 19 MO), Dose: 0, 30, 60, 120 MG/KG/D ON DAY 91 OF STUDY DOSES LOWERED TO 20, 30, 40 MG/KG/D (STUDY DURATION: 19 MO)); “inactive; negative; decreased litter size and fertility rates at two highest doses” (Species: Mouse, Strain/Sex: Swiss (CD-1)/Female F1 Generation, Route: In utero, Dose: 0, 50, 100, 200, 300 mg/kg by gavage to F0 generation females 7 d/wk for 29-39 d (delivery day): females mated with unex, Dose: 0, 50, 100, 200, 300 mg/kg by gavage to F0 generation females 7 d/wk for 29-39 d (delivery day): females mated with unex). For the same compound, the carcinogen call reads like this: (Species: Mouse, Strain/Sex: Swiss (CD-1)/Male F1 Generation, Route: In utero, Dose: 0, 50, 100, 200, 300 mg/kg by gavage to F0 generation females 7 d/wk for 29-39 d (delivery day): females mated with unex, Dose: 0, 50, 100, 200, 300 mg/kg by gavage to F0 generation females 7 d/wk for 29-39 d (delivery day): females mated with unex, Tumor Site: Type of Lesion: Lung, Alveolar/Bronchiolar Carcinoma (5/50, 11/50, 6/50, 11/37, 8/32), Alveolar/Bronchiolar adenoma or carcinoma (14/50,, Tumor Site: Type of Lesion: Lung, Alveolar/Bronchiolar Carcinoma (5/50, 11/50, 6/50, 11/37, 8/32), Alveolar/Bronchiolar adenoma or carcinoma (14/50) “active; positive; decreased litter size and fertility rates at two highest doses”; (Species: RAT, Strain/Sex: STRAIN-CD/MALE, Route: GAVAGE, Dose: 0, 80, 220, 600 MG/KG/D, HIGH DOSE LOWERED TO 450 MG/KG THEN 300 MG/KG ON DAYS 91 AND 278, RESPECTIVELY (STUDY DURATION:, Dose: 0, 80, 220, 600 MG/KG/D, HIGH DOSE LOWERED TO 450 MG/KG THEN 300 MG/KG ON DAYS 91 AND 278, RESPECTIVELY (STUDY DURATION:) “inactive; negative”.

Consider `Cc1c2ccccc2cc2c1ccc1ccccc12`, for which the carcinogen call (Species: MOUSE, Strain/Sex: ALBINO/FEMALE, Route: DERMAL, Dose: 70 UG IN 0.025 ML ACETONE 2/WK FOR 20 WK, Tumor Site: Type of Lesion: INTEGUMENTARY SYSTEM (SKIN): CARCINOMA) is “active; positive”; the carcinogen call (Species: MOUSE, Strain/Sex: ALBINO/FEMALE, Route: SUBCUTANEOUS, Dose: 0.1 ML OF 1 MG IN TRICAPRYLIN ONCE, Tumor Site: Type of Lesion: INJECTION SITE: SARCOMA) was “active; positive”; the carcinogen call (Species: MOUSE, Strain/Sex: ALBINO/FEMALE, Route: SUBCUTANEOUS, Dose: 0.25, 1.0 MG IN 0.1 ML TRICAPRYLIN ONCE, Tumor Site: Type of Lesion: INJECTION SITE: SARCOMA) was “active; positive”; the carcinogen call (Species: MOUSE, Strain/Sex: C57BL/MALE,FEMALE, Route: SUBCUTANEOUS, Dose: 1 MG IN 0.1 ML ARACHIS OIL 1/WK FOR 10 WK, Tumor Site: Type of Lesion: INJECTION SITE) was “active; positive”; the carcinogen call (Species: RAT, Strain/Sex: ALBINO/MALE, Route: SUBCUTANEOUS, Dose: 2.0 MG IN 0.25 ML TRICAPRYLIN ONCE, Tumor Site: Type of Lesion: INJECTION SITE: SARCOMA) is “active; positive”; the carcinogen call (Species: RAT, Strain/Sex: F344/MALE,FEMALE, Route: SUBCUTANEOUS, Dose: 2 MG IN 0.2 ML PARAFFIN SOLN (TOTAL DOSE 4 MG/RAT), Tumor Site: Type of Lesion: INJECTION SITE: FIBROSARCOMA) was “active; positive”. Also, the carcinogen call (Species: RAT, Strain/Sex: HOLTZMAN/MALE, Route: SUBCUTANEOUS, Dose: 0.25 ML OF 2 MG IN TRICAPRYLIN ONCE, Tumor Site: Type of Lesion: INJECTION SITE: SARCOMA) was “active; positive” and the carcinogen call (Species: RAT, Strain/Sex: LONG-EVANS/MALE, Route: INTRAMUSCULAR, Dose: 2.5 MG IN 0.5 ML SESAME OIL ONCE, Tumor Site: Type of Lesion: INJECTION SITE: SARCOMA) is “active; positive”.

As for `[Cl][Hg][Cl]`, the carcinogen call runs as follows: (Species: MOUSE, Strain/Sex: B6C3F1/FEMALE, Route: GAVAGE, Dose: 0, 5, 10 MG/KG IN DEIONIZED WATER 5 D/WK FOR 103-104 WK (STUDY DURATION: 104 WK), Dose: 0, 5, 10 MG/KG IN DEIONIZED WATER 5 D/WK FOR 103-104 WK (STUDY DURATION: 104 WK)) “inactive; negative”; (Species: MOUSE, Strain/Sex: B6C3F1/MALE, Route: GAVAGE, Dose: 0, 5, 10 MG/KG IN DEIONIZED WATER 5 D/WK FOR 103-104 WK (STUDY DURATION: 104 WK), Dose: 0, 5, 10 MG/KG IN DEIONIZED WATER 5 D/WK FOR 103-104 WK (STUDY DURATION: 104 WK), Tumor Site: Type of Lesion: KIDNEY (RENAL TUBLE): ADENOMA, ADENOCARCINOMA) “equivocal”; (Species: MOUSE, Strain/Sex: SWISS/FEMALE, Route: ORAL, Dose: 0, 5 PPM (HG) IN DRINKING WATER FOR DURATION OF STUDY (STUDY DURATION: LIFE SPAN)) “inactive; negative”; (Species: MOUSE, Strain/Sex: SWISS/MALE, Route: ORAL, Dose: 0, 5 PPM (HG) IN DRINKING WATER FOR DURATION OF STUDY (STUDY DURATION: LIFE SPAN)) “inactive; negative”; (Species: RAT, Strain/Sex: F344/FEMALE, Route: GAVAGE, Dose: 0, 2.5, 5 MG/KG IN DEIONIZED WATER 5 D/WK FOR 103-104 WK (STUDY DURATION: 104 WK), Dose: 0, 2.5, 5 MG/KG IN DEIONIZED WATER 5 D/WK FOR 103-104 WK (STUDY DURATION: 104 WK), Tumor Site: Type of Lesion: FORESTOMACH: SQUAMOUS CELL PAPILLOMA) “equivocal”; (Species: RAT, Strain/Sex: F344/MALE, Route: GAVAGE, Dose: 0, 2.5, 5 MG/KG IN DEIONIZED WATER 5 D/WK FOR 103-104 WK (STUDY DURATION: 104 WK), Dose: 0, 2.5, 5 MG/KG IN DEIONIZED WATER 5 D/WK FOR 103-104 WK (STUDY DURATION: 104 WK), Tumor Site: Type of Lesion: THYROID GLAND: FOLLICULAR CELL CARCINOMA, FOLLICULAR CELL CARCINOMA OR ADENOMA, FORESTOMACH: SQUAMOUS CELL PAPILLOMA) “active; positive”.

The values are drawn from PubChem BioAssay AID1259411 (Chemical Carcinogenesis Research Information System (CCRIS), 2018).
